System: Caco-2 cells
Assay: Endosomal trafficking proteins in Caco-2 cells (immunoblot, endosomal fractions)
Type: cell-based, human
Procedure: Human colon adenocarcinoma-derived Caco-2 and T84 cells were obtained from the ATCC. Cells were maintained in T25 flask in Modified Eagle Medium (MEM) for Caco-2, or Ham's F12+DMEM (1:1) for T84, supplemented with 10% fetal bovine serum (FBS), 2 mM Glutamine+1% Non Essential Amino Acids (NEAA) and the antibiotics penicillin\streptomycin (100 units/ml) (all reagents from Lonza) (Luciani, A., et al. 2010. Cells were grown in Transwells (Corning, 3470 or 3460) under the normal condition (Luciani, A., et al. 2012). Briefly, 8×10^4 or 5×10^5 cells were seeded in 6.5-mm diameter or 12-mm diameter, respectively, and grown until the RT reached 800 to 1,200 Ω·cm2. Transwells with a pore size of 0.4 μm were used. Medium in both the apical and basolateral chambers was changed every other day. Cells were treated with 20 μg/ml of either α-gliadin peptide P31-43 or […] or scrambled PGAV or modified P31-43 either biotin-tagged or not, for different time point (from 1 h short challenge up to 24 h). Cells were also treated with 50 or 100 μg/ml of P57-68 or PGAV peptides for 3 h. Caco-2 or T84 cells were also treated with: CFTR potentiators VX-770 (10 μM) or VX-532 (20 μM) (Selleck chemicals) or Genistein (10 μM) (Sigma-Aldrich) or in presence or absence of CFTR inhibitor172 (CFTRinh172, 20 μM) or 3-methyl-adenine (3-MA, 20 μM) (Calbiochem), Z-DON (20 nM, Zedira) or BAPTA-AM (10 μM, Calbiochem).
The whole lysate or membrane fraction proteins of cell lines and mice intestine homogenates were obtained from treated and untreated cells or mice as described. The equal amount of protein were resolved by SDS-PAGE gel and blotted with antibodies against: SQSTM1, (Sigma Aldrich, 108k4767) 1:1000, PPARγ (Santa Cruz Biotechnology, sc7273) 1:500, BECN1 (Abcam, ab58878) 1:1000, CFTR clone M3A7 (Abcam, ab4067) 1:500, phospho-ERK1/2 (php42/44, Cell Signaling Technology, #91101) 1:1000, UVRAG (Santa Cruz Biotechnology sc8215) 1:1000, NHERF-1 (BD, 611161) 1:1000, EZRIN (BD, 610603) 1:1000, hVps34 (SigmaV9764) 1:300, biotin (Abcam, ab1227) 1:2000, PKAr2a (BD, 610625) 1:500, Ubiquitin (Cell Signaling clone P4D1, #3936) 1:1000, CHIP (Calbiochem PC711) 1:500, Caspase-1 p10 (M-20) (Santa Cruz Biotechnology, sc-514) 1:200, NLRP3 (Abcam, ab4207), 1:500, IDO1 (monoclonal; cv152) 1:1000^[80], used as primary antibodies. Normalization was performed by probing the membrane with anti-β-actin (Cell Signaling, #4970) 1:1000, anti-Gapdh (Sigma-Aldrich, G8795) 1:1000 and anti-flottilin (Abcam ab15148) 1:1000 antibodies. Immunoprecipitations of endogenous proteins were performed on 500 μg of lysates from Caco-2 cells. The proteins were incubated for 12-18 h at 4° C. with 10 ug\ml of specific antibody followed by the addition of Protein A/G-agarose beads for 4 h at 4° C. […]

Compound	Rab5 and Rab7 levels in endosomal protein fractions	total cellular abundance of BECN1, hVps34 and UVRAG	effect on P31-43-induced reduction of BECN1, hVps34, UVRAG, Rab5 and Rab7 (lost if 3-MA or CFTR inhibitor added)
α-gliadin peptide LGQQQPFPPQQPY (SEQ ID 1), induces an enterocyte stress response (P31-43 sequence of alpha-gliadin)	decreased	reduced the total cellular abundance	–
CC(C)(C)c1cc(C(C)(C)C)c(NC(=O)c2c[nH]c3ccccc3c2=O)cc1O [VX-770, N-(2,4-di-tert-butyl-5-hydroxyphenyl)-4-oxo-1,4-dihydroquinoline-3-carboxamide]	–	–	counteracted

Reference: patent US20200206198A1, “CFTR CHANNEL ACTIVATOR FOR USE IN THE TREATMENT AND/OR PREVENTION OF GLUTEN SENSITIVITY CONDITIONS” (priority 2017, published 2020)
